Among the data in patent publication US9469615B2, “Quinoxalines and AZA-quinoxalines as CRTH2 receptor modulators” (Merck Sharp & Dohme Corp., priority 2010, dated 2016) are Ki values, retold here.

The target in this assay is T1, hCRTH2 (Homo sapiens, UniProt Q9Y5Y4).
T1 construct: expressed in transfected cells; host or cells: HEK (human embryonic kidney) cells expressing hCRTH2; membrane preparation
T1 sequence (Q9Y5Y4 1-395): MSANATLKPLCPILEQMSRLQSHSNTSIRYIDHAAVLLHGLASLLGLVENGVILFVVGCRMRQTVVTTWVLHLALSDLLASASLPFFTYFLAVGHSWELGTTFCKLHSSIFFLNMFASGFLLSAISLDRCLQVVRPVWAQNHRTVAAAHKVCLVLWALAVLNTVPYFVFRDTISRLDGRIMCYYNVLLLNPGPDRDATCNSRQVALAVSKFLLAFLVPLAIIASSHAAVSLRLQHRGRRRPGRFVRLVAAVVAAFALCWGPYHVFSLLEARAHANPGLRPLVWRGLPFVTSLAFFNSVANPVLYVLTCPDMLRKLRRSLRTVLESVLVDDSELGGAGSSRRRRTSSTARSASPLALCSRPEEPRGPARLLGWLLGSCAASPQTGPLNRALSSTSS
The experiment in a line: Radioligand binding assay ([3H]PGD2 competition, HEK-hCRTH2 membranes). Conditions: [3H]PGD2 binding, rated A-E (Table A). Summed up:
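HEK-hCRTH2 membranes, 8-20 μg; [3H]PGD2 3.0 nM; 50 mM Tris-HCl pH 7.4/1 mM EDTA/2 mM MnCl2; DMSO 1%; 60 min RT; NSB 10 μM PGD2; filtration, scintillation counting.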
The compound `CC(CCc1nc2cc(C(=O)NCc3cccc(Cl)c3)ccc2nc1-c1ccc(C(F)(F)F)cc1)CC(=O)O` (stereo not drawn) [17Q, 7-[[[(3-chlorophenyl)methyl]amino]carbonyl]-beta-methyl-3-[4-(trifluoromethyl)phenyl]-2-quinoxalinepentanoic acid] had a Ki of 2.1 to 20 nM. For `CC(CCc1nc2cc(C(=O)N3CCC(c4ccccc4)CC3)ccc2nc1-c1ccc(C(F)(F)F)cc1)CC(=O)O` (stereo not shown) [17R], the inhibitory constant (Ki) lay in the range of 0.1 to 2 nM. Compound `CC(CCc1nc2cc(C(=O)N[C@@H](c3ccccc3)C(F)(F)F)ccc2nc1-c1ccc(C(F)(F)F)cc1)CC(=O)O` (stereo partly shown) [17S] showed a Ki of 2.1 to 20 nM.

Consider `CC(CCc1nc2cc(C(=O)NC3Cc4ccccc4C3)ccc2nc1-c1ccc(C(F)(F)F)cc1)CC(=O)O` (stereo not drawn) [17T, 7-[[(2,3-dihydro-1H-inden-2-yl)amino]carbonyl]-beta-methyl-3-[4-(trifluoromethyl)phenyl]-2-quinoxalinepentanoic acid], for which the Ki is 0.1 to 2 nM. As to `CC(CCc1nc2cc(C(=O)N3CC[C@H](c4ccccc4)C3)ccc2nc1-c1ccc(C(F)(F)F)cc1)CC(=O)O` (stereo partly drawn) [17U, beta-methyl-7-[(3(R)-phenyl-1-pyrrolidinyl)carbonyl]-3-[4-(trifluoromethyl)phenyl]-2-quinoxalinepentanoic acid], the Ki was in the range of 2.1 to 20 nM. In turn, `CC(CCc1nc2cc(C(=O)N3CC[C@@H](c4ccccc4)C3)ccc2nc1-c1ccc(C(F)(F)F)cc1)CC(=O)O` (stereo partly drawn) [17V, beta-methyl-7-[(3(S)-phenyl-1-pyrrolidinyl)carbonyl]-3-[4-(trifluoromethyl)phenyl]-2-quinoxalinepentanoic acid] gave a Ki of 0.1 to 2 nM. The value for `CC(CCc1nc2cc(C(=O)N3CC(c4ccccc4)C3)ccc2nc1-c1ccc(C(F)(F)F)cc1)CC(=O)O` (stereo not drawn) [17W, beta-methyl-7-[(3-phenyl-1-azetidinyl)carbonyl]-3-[4-(trifluoromethyl)phenyl]-2-quinoxalinepentanoic acid] was 0.1 to 2 nM; that for `CC(CCc1nc2cc(C(=O)NCc3ccc(Cl)cc3)ccc2nc1-c1ccc(C(F)(F)F)cc1)CC(=O)O` (stereo not drawn) [17X, 7-[[[(4-chlorophenyl)methyl]amino]carbonyl]-beta-methyl-3-[4-(trifluoromethyl)phenyl]-2-quinoxalinepentanoic acid] was 2.1 to 20 nM. With `CC(CCc1nc2cc(C(=O)NCc3ccc(OC(F)(F)F)cc3)ccc2nc1-c1ccc(C(F)(F)F)cc1)CC(=O)O` (stereo not drawn) [17Y, beta-methyl-7-[[[[4-(trifluoromethoxy)phenyl]methyl]amino]carbonyl]-3-[4-(trifluoromethyl)phenyl]-2-quinoxalinepentanoic acid], the Ki was in the range of 2.1 to 20 nM. As to `CC(CCc1nc2cc(C(=O)NCc3ccc(C#N)cc3)ccc2nc1-c1ccc(C(F)(F)F)cc1)CC(=O)O` (stereo not drawn) [17Z, 7-[[[(4-cyanophenyl)methyl]amino]carbonyl]-beta-methyl-3-[4-(trifluoromethyl)phenyl]-2-quinoxalinepentanoic acid], the Ki was in the range of 2.1 to 20 nM. In turn, `CC(CCc1nc2cc(C(=O)N3CCC[C@@H](c4ccccc4)C3)ccc2nc1-c1ccc(Cl)cc1)CC(=O)O` (stereo partly drawn) [17i, 3-(4-chlorophenyl)-beta-methyl-7-[(3(S)-phenyl-1-piperidinyl)carbonyl]-2-quinoxalinepentanoic acid] yielded a Ki of 2.1 to 20 nM. Take `COc1ccc([C@@H](C)NC(=O)c2ccc3nc(-c4ccc(Cl)cc4)c(CCC(C)CC(=O)O)nc3c2)cc1` (stereo partly drawn) [17o, 3-(4-chlorophenyl)-7-[[[1(R)-(4-methoxyphenyl)ethyl]amino]carbonyl]-beta-methyl-2-quinoxaline pentanoic acid]: the Ki lay within 0.1 to 2 nM. In the case of `CC(CCCc1nc2cc(C(=O)NCc3cccc(Cl)c3)ccc2nc1-c1ccc(C(F)(F)F)cc1)C(=O)O` (stereo not drawn) [18D, 7-[[[(3-chlorophenyl)methyl]amino]carbonyl]-alpha-nethyl-3-[4-(trifluoromethyl)phenyl]-2-quinoxalinepentanoic acid] it was 2.1 to 20 nM; in that of `CC(CCCc1nc2cc(C(=O)N3CC[C@@H](c4ccccc4)C3)ccc2nc1-c1ccc(C(F)(F)F)cc1)C(=O)O` (stereo partly drawn) [18E, alpha-methyl-7-[(3(S)-phenyl-1-pyrrolidinyl)carbonyl]-3-[4-(trifluoromethyl)phenyl]-2-quinoxalinepentanoic acid], 0.1 to 2 nM; in that of `CC(CCCc1nc2cc(C(=O)N3CC[C@H](c4ccccc4)C3)ccc2nc1-c1ccc(C(F)(F)F)cc1)C(=O)O` (stereo partly drawn) [18F, alpha-methyl-7-[(3(R)-phenyl-1-pyrrolidinyl)carbonyl]-3-[4-(trifluoromethyl)phenyl]-2-quinoxalinepentanoic acid], 2.1 to 20 nM. For the compound `CC(CCCc1nc2cc(C(=O)NC3Cc4ccccc4C3)ccc2nc1-c1ccc(C(F)(F)F)cc1)C(=O)O` (stereo not drawn) [18G, 7-[[(2,3-dihydro-1H-inden-2-yl)amino]carbonyl]-alpha-methyl-3-[4-(trifluoromethyl)phenyl]-2-quinoxalinepentanoic acid], the Ki is 0.1 to 2 nM. In the case of `CC(CCCc1nc2cc(C(=O)N[C@@H](c3ccccc3)C(F)(F)F)ccc2nc1-c1ccc(C(F)(F)F)cc1)C(=O)O` (stereo partly drawn) [18H, alpha-methyl-3-[4-(trifluoromethyl)phenyl]-7-[[(2,2,2-trifluoro-1(S)-phenylethyl)amino]carbonyl]-2-quinoxalinepentanoic acid] it was 2.1 to 20 nM; in that of `N#Cc1ccc(CNC(=O)c2ccc3nc(-c4ccc(Cl)cc4)c(CCc4cccc(CC(=O)O)c4)nc3c2)cc1` [19F, 3-[2-[3-(4-chlorophenyl)-7-[[[(4-cyanophenyl)methyl]amino]carbonyl]-2-quinoxalinyl]ethyl] benzeneacetic acid], 2.1 to 20 nM; in that of `C[C@@H](NC(=O)c1ccc2nc(-c3ccc(Cl)cc3)c(CCc3cccc(CC(=O)O)c3)nc2c1)c1ccc(F)cc1` [19G, 3-[2-[3-(4-chlorophenyl)-7-[[[1(R)-(4-fluorophenyl)ethyl]amino]carbonyl]-2-quinaxalinyl]ethyl] benzeneacetic acid], 2.1 to 20 nM. The compound `C[C@H](NC(=O)c1ccc2nc(-c3ccc(Cl)cc3)c(CCc3cccc(CC(=O)O)c3)nc2c1)c1ccc(F)cc1` [19H, 3-[2-[3-(4-chlorophenyl)-7-[[[1(S)-(4-fluorophenyl)ethyl]amino]carbonyl]-2-quinoxalinyl]ethyl] benzeneacetic acid] displayed a Ki of 2.1 to 20 nM. In the case of `O=C(O)Cc1cccc(CCc2nc3cc(C(=O)N[C@@H](c4ccccc4)C(F)(F)F)ccc3nc2-c2ccc(Cl)cc2)c1` [19J, 3-[2-[3-(4-chlorophenyl)-7-[[(2,2,2-trifluoro-1(S)-phenylethyl)amino]carbonyl]-2-quinoxalinyl]ethyl]benzeneacetic acid], the Ki fell in the range of 20.1 to 200 nM. Consider `O=C(O)Cc1cccc(CCc2nc3cc(C(=O)N4CC(c5ccccc5)C4)ccc3nc2-c2ccc(Cl)cc2)c1` [19K, 3-[2-[3-(4-chlorophenyl)-7-[(3-phenyl-1-azetidinyl)carbonyl]-2-quinoxalinyl]ethyl] benzeneacetic acid], for which the Ki fell in the range of 2.1 to 20 nM.

In turn, `O=C(O)Cc1cccc(CCc2nc3cc(C(=O)NCc4cccc(Cl)c4)ccc3nc2-c2ccc(Cl)cc2)c1` [19i, 3-[2-[3-(4-chlorophenyl)-7-[[[(3-chlorophenyl)methyl]amino]carbonyl]-2-quinoxalinyl]ethyl] benzeneacetic acid] gave a Ki of 2.1 to 20 nM. `C[C@@H](c1ccccc1)N(C)C(=O)c1ccc2nc(-c3ccc(F)cc3)c(CCCCC(=O)O)nc2c1` [21C, -(4-fluorophenyl)-7-[[methyl(1(S)-phenylethyl)amino]carbonyl]-2-quinoxalinepentanoic acid] registered a Ki of 2.1 to 20 nM. `O=C(NCc1cccc(Cl)c1)c1ccc2nc(-c3ccccc3)c(CCCCc3nnn[nH]3)nc2c1` [22D, N-[(3-chlorophenyl)methyl]-2-phenyl-3-[4-(1H-tetrazol-5-yl)butyl]-6-quinoxalinecarboxamide] displayed a Ki of 20.1 to 200 nM. For `O=C(O)CCCCc1nc2cc(C(=O)N3CC[C@@H](c4ccccc4)C3)c(F)cc2nc1-c1ccc(F)cc1` [24H, 6-fluoro-3-(4-fluorophenyl)-7-[(3(S)-phenyl-1-pyrrolidinyl)carbonyl]-2-quinoxalinepentanoic acid], the Ki fell in the range of 2.1 to 20 nM. As for `O=C(O)CCCCc1nc2cc(C(=O)N3CC[C@@H](c4ccccc4)C3)c(F)cc2nc1-c1ccccc1` [24i, 6-fluoro-3-phenyl-7-[(3(S)-phenyl-1-pyrrolidinyl)carbonyl]-2-quinoxalinepentanoic acid], the Ki lay within 2.1 to 20 nM. `O=C(O)CCCCc1nc2cc(C(=O)N3CCC(c4ccccc4)CC3)ccc2nc1-c1ccc(C(F)(F)F)cc1Cl` [26AA, 3-[2-chloro-4-(trifluoromethyl)phenyl]-7-[(4-phenyl-1-piperidinyl)carbonyl]-2-quinoxalinepentanoic acid]: the Ki lay within 0.1 to 2 nM. For `O=C(O)CCCCc1nc2cc(C(=O)N3CCC(c4ccccc4)CC3)ccc2nc1-c1ccc(Br)cc1` [26AB, 3-(4-bromophenyl)-7-[(4-phenyl-1-piperidinyl)carbonyl]-2-quinoxalinepentanoic acid], the Ki lay in the range of 0.1 to 2 nM. In the case of `O=C(O)CCCCc1nc2cc(C(=O)N3CCC(c4ccccc4)C3)ccc2nc1-c1cccc(F)c1` (stereo not shown) [26E, 3-(3-fluorophenyl)-7-[(3-phenyl-1-pyrrolidinyl)carbonyl]-2-quinoxalinepentanoic acid] it was 2.1 to 20 nM; in that of `O=C(O)CCCCc1nc2cc(C(=O)N3CCC(c4ccccc4)C3)ccc2nc1-c1cccc(Cl)c1` (stereo not shown) [26F, 3-(3-chlorophenyl)-7-[(3-phenyl-1-pyrrolidinyl)carbonyl]-2-quinoxalinepentanoic acid], 2.1 to 20 nM.
